Measurements taken from patent publication US4965280A, “Antifungal carbinols” (E. I. Du Pont de Nemours and Company, priority 1989, dated 1990).
Values after ≈ are worked out from the molar mass of the structure shown. Like-named read-outs stand apart in the source and are kept apart here.

How the values were obtained:
[1] = test system: Candida albicans ATCC 11651; experiment: In vivo systemic Candida infection in mice, primary assay; parameters: species or system Candida albicans; CF-1 female mice; settings: Candida albicans, 150 mg/kg per day, read-out: % Survival
In short: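 CF-1 female mice (20 g, 10 per group) were infected IV with 0.2 ml of 1×10^7/ml C. albicans ATCC 11651, then given test compound subcutaneously at 50 or 150 mg/kg/day at 1 and 6 h post-infection and once daily for three more days. Survival was followed for 21 days against infected untreated mice; ≥70% protection at 14 days was scored active.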

[2] = test system: Venturia inaequalis; experiment: Example A apple scab; type: in vivo; settings: read-out: disease control rating, Ex. A
In short: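 Spray application to run-off on apple seedlings; compound at 100 or 20 ppm in water with 250 ppm TREM 014 (polyhydric alcohol esters) and 6% acetone of final volume.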

[3] = test system: Cercosporidium personatum; experiment: Example B Peanut Late Leafspot; type: in vivo; settings: Nothopassalora personata, read-out: disease control rating, Ex. B
In short: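 Spray suspensions at 100 or 20 ppm, prepared from acetone solutions (acetone 6% of final volume) in water carrying 250 ppm of a polyhydric alcohol ester surfactant, were applied to peanut seedlings until run-off.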

[4] = test system: Botrytis cinerea; experiment: Example C bean grey mold; type: in vivo; settings: Botrytis cinerea, 24 h, read-out: disease control rating, Ex. C
In short: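 Spray rates: 100 and 20 ppm. Vehicle: purified water with 6% acetone by final volume plus 250 ppm TREM 014 (polyhydric alcohol esters). Host plants, broad bean seedlings, were wetted until run-off.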

[5] = test system: Erysiphe graminis f. sp. tritici; experiment: Example D wheat powdery mildew; type: in vivo; settings: Blumeria graminis, 144 h, read-out: disease control rating, Ex. D
In short: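 Seedling wheat was treated by spraying to run-off; formulation used acetone as co-solvent (6% final) and TREM 014 surfactant at 250 ppm, with compound at 100 or 20 ppm.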

[6] = test system: Pyricularia oryzae; experiment: whole plant or invertebrate; type: in vivo; settings: Pyricularia oryzae, 120 h; for pest or weed control at 20 ppm: read-out: disease control rating, Ex. E, 20 PPM; for pest or weed control at 100 ppm: read-out: disease control rating, Ex. E, 100 PPM
[7] = test system: Rhizoctonia solani; experiment: Example F rice sheath blight; type: in vivo; settings: Rhizoctonia solani, 144 h, read-out: disease control rating, Ex. F
In short: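 Foliar run-off spray, rice seedlings: compound at 100 or 20 ppm in aqueous 250 ppm polyhydric alcohol ester surfactant, acetone 6% v/v final.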

[8] = test system: Puccinia recondita; experiment: Example G wheat leaf rust; type: in vivo; settings: read-out: disease control rating, Ex. G
[9] = test system: Phytophthora infestans; experiment: whole plant or invertebrate; type: in vivo; settings: Phytophthora infestans, in Solanum lycopersicum, read-out: disease control rating, Ex. H, 100 PPM
[10] = test system: Plasmorpara viticola; experiment: Example I grape downy mildew; type: in vivo; settings: read-out: disease control rating, Ex. I
In short: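 Applied as a foliar spray to run-off on grape seedlings, the compounds were formulated at 100 or 20 ppm in water containing 250 ppm TREM 014, with acetone making up 6% of the volume.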

[11] = test system: Pythium aphanadermatum; experiment: Example J cucumber damping off; type: in vivo; settings: Pythium, 336 h; 5 kg/ha; read-out: disease control rating, Ex. J
In short: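 This cucumber damping-off test used soil and seeds infested with a sand–cereal preparation carrying mycelium of Pythium aphanadermatum. Incubation took place in a growth chamber held at 30° C. for 14 days. Afterwards, the extent of disease was scored as a disease control rating.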

[12] = test system: Rhizoctonia solani; experiment: Example K cotton blight; type: in vivo; settings: 336 h, 5 kg/ha, read-out: disease control rating, Ex. K
Method: […] Seeds and soil were then inoculated with a mixture of sand, cereal and mycelium of the fungus Rhizoctonia solani, causal agent of cotton blight, and incubated in a growth chamber at 30° C. for 14 days. Disease ratings were then made.

[13] = test system: Fusarium oxysporum f. sp. cucumerinum; experiment: Example L cucumber wilt; type: in vivo; settings: 336 h, 5 kg/ha, read-out: disease control rating, Ex. L
Method: […] Seeds and soil were then inoculated with a mixture of sand, cereal and mycelium of the fungus Fusarium oxysporum f. sp. cucumerinum, causal agent of cucumber wilt, and incubated in a growth chamber at 30° C. for 14 days. Disease ratings were then made.

[14] = test system: Sclerotium rolfsii; experiment: Example M southern blight; type: in vivo; settings: Agroathelia rolfsii, 336 h; 5 kg/ha; read-out: disease control rating, Ex. M
Method: […] Seeds and soil were then inoculated with a mixture of sand, cereal and mycelium of the fungus Sclerotium rolfsii, causal agent of sourthern blight, and incubated in a growth chamber at 30° C. for 14 days. Disease ratings were then made.

[15] = test system: Candida albicans ATCC 11651; experiment: In vitro antifungal MIC, microtiter broth dilution; settings: Candida albicans, ATCC11651, 24 h, read-out: MIC values, C. albicans, 30°, 24 hours
[16] = test system: Aspergillus fumigatus ATCC 28214; experiment: In vitro antifungal MIC, microtiter broth dilution; settings: Aspergillus fumigatus, ATCC28214, 24 h, read-out: MIC values, A. fumigatus, 30°, 24 hours
Method: In vitro activity (Table 5) is expressed in terms of the minimal inhibitory concentration (MIC) of the test compound which inhibits the growth of yeasts and fungi.
The target organisms, Candida albicans ATCC 11651 and Aspergillus fumigatus ATCC 28214 are standardized, [V. Bezjak, J. Clinical Micro., 21 509-512 (1984)], to a concentration of 10^7 organisms/ml and maintained at -70° until use. Test compounds are solubilized in dimethyl sulfoxide (DMSO) and diluted in Eagle's Minimum Essential Medium (EMEM) broth to achieve a final concentration of 200 μg/ml. Stock solutions of standard antifungal agents are stored at -70° and diluted in EMEM as required.
The in vitro assay utilizes a microtiter broth dilution technique [L. Polonelli and G. Morace, Mycopathologia, 86, 21-28 (1984)] and C. […] The appropriate wells are inoculated with the required organism (C. albicans at 1×10^4 organisms/ml and A. fumigatus at 5×10^5 organisms/ml) and the assay incubated at 30° for 24 hours.

With C=C(c1ccc(F)cc1)C(O)(Cn1cncn1)c1ccc(Cl)c(Cl)c1 (centres unmarked) [Example 651, 2-(3,4-Dichlorophenyl)-3-(4-fluorophenyl)-1-(1H-1,2,4-triazol-1-yl)-3-buten-2-ol] the responders at 150 mg/kg ([1]; ATCC11651, 168 h, day 7) was 100%, the responders at 150 mg/kg ([1]; ATCC11651, 336 h, day 14) was 50% and the responders at 150 mg/kg ([1]; ATCC11651, 504 h, day 21) was 20%. For the same compound, the pest or weed control at 20 ppm [2] was 67%, the pest or weed control at 20 ppm [3] was 0% and the pest or weed control at 20 ppm [4] was 7%. It also gave a pest or weed control at 100 ppm [4] of 42%, a pest or weed control at 20 ppm [5] of 67% and a pest or weed control at 20 ppm [6] of 0%. It also gave a pest or weed control at 100 ppm [6] of 0%, a pest or weed control at 20 ppm [7] of 0% and a pest or weed control at 100 ppm [7] of 62%. For the same compound, the pest or weed control at 20 ppm [8] was 100%, the pest or weed control at 100 ppm [9] was 0% and the pest or weed control at 100 ppm [10] was 46%. The pest or weed control at 5000 g/ha [11] was 0%, the pest or weed control at 5000 g/ha [12] was 0% and the pest or weed control at 5000 g/ha [13] was 0%. It also gave a pest or weed control at 5000 g/ha [14] of 0%, an MIC [15] of 0.8 µg/mL (≈ 2.12 µM) and an MIC [16] of 100 µg/mL (≈ 264 µM).

For C=C(c1ccc(F)cc1)C(O)(Cn1cncn1)c1ccc(-c2ccccc2)cc1 (centres unmarked) [Example 657], the responders at 150 mg/kg ([1]; ATCC11651, 168 h, day 7) was 0%, the responders at 150 mg/kg ([1]; ATCC11651, 336 h, day 14) was 0% and the responders at 150 mg/kg ([1]; ATCC11651, 504 h, day 21) was 0%. The pest or weed control at 100 ppm [2] was 62%, the pest or weed control at 100 ppm [3] was 100% and the pest or weed control at 100 ppm [4] was 81%. For the same compound, the pest or weed control at 100 ppm [5] was 98%, the pest or weed control at 100 ppm [6] was 49% and the pest or weed control at 100 ppm [7] was 97%. It also gave a pest or weed control at 100 ppm [8] of 100%, a pest or weed control at 100 ppm [9] of 24% and a pest or weed control at 100 ppm [10] of 37%. For the same compound, the pest or weed control at 5000 g/ha [11] was 0%, the pest or weed control at 5000 g/ha [12] was 0% and the pest or weed control at 5000 g/ha [13] was 0%. For the same compound, the pest or weed control at 5000 g/ha [14] was 0%, the MIC [15] was 0.4 µg/mL (≈ 1.04 µM) and the MIC [16] was 100 µg/mL (≈ 259 µM).

C=C(c1ccc(OC)cc1)C(O)(Cn1cncn1)c1ccc(F)cc1 (centres unmarked) [Example 726] showed a responders at 150 mg/kg ([1]; ATCC11651, 168 h, day 7) of 100%, a responders at 150 mg/kg ([1]; ATCC11651, 336 h, day 14) of 80% and a responders at 150 mg/kg ([1]; ATCC11651, 504 h, day 21) of 10%. For the same compound, the pest or weed control at 20 ppm [2] was 75%, the pest or weed control at 20 ppm [3] was 0% and the pest or weed control at 20 ppm [4] was 23%. The pest or weed control at 20 ppm [5] was 81%, the pest or weed control at 20 ppm [6] was 0% and the pest or weed control at 100 ppm [6] was 0%. For the same compound, the pest or weed control at 20 ppm [7] was 0%, the pest or weed control at 100 ppm [7] was 0% and the pest or weed control at 20 ppm [8] was 100%. It also gave a pest or weed control at 100 ppm [9] of 0%, a pest or weed control at 100 ppm [10] of 38% and a pest or weed control at 5000 g/ha [11] of 0%. It also gave a pest or weed control at 5000 g/ha [12] of 20%, a pest or weed control at 5000 g/ha [13] of 0% and a pest or weed control at 5000 g/ha [14] of 0%. The MIC [15] was 0.8 µg/mL (≈ 2.36 µM) and the MIC [16] was 6.3 µg/mL (≈ 18.6 µM).

For C=C(c1cccc(Cl)c1)C(O)(Cn1cncn1)c1ccc(Cl)c(Cl)c1 (centres unmarked) [Example 905], the responders at 150 mg/kg ([1]; ATCC11651, 168 h, day 7) was 80%, the responders at 150 mg/kg ([1]; ATCC11651, 336 h, day 14) was 50% and the responders at 150 mg/kg ([1]; ATCC11651, 504 h, day 21) was 20%. It also gave a pest or weed control at 20 ppm [2] of 7%, a pest or weed control at 20 ppm [3] of 0% and a pest or weed control at 20 ppm [4] of 15%. The pest or weed control at 100 ppm [4] was 19%, the pest or weed control at 20 ppm [5] was 47% and the pest or weed control at 20 ppm [6] was 0%. It also gave a pest or weed control at 100 ppm [6] of 0%, a pest or weed control at 20 ppm [7] of 0% and a pest or weed control at 100 ppm [7] of 37%. For the same compound, the pest or weed control at 20 ppm [8] was 16%, the pest or weed control at 100 ppm [9] was 0% and the pest or weed control at 100 ppm [10] was 87%. The pest or weed control at 5000 g/ha [11] was 0%, the pest or weed control at 5000 g/ha [12] was 0% and the pest or weed control at 5000 g/ha [13] was 0%. For the same compound, the pest or weed control at 5000 g/ha [14] was 0%, the MIC [15] was 0.04 µg/mL (≈ 0.101 µM) and the MIC [16] was 100 µg/mL (≈ 253 µM).

In the case of C=C(c1ccccc1)C(O)(Cn1ncnc1S)c1ccc(F)cc1 (centres unmarked) [Example 1278], the responders at 150 mg/kg ([1]; ATCC11651, 168 h, day 7) is reported as 0%, the responders at 150 mg/kg ([1]; ATCC11651, 336 h, day 14) is reported as 0% and the responders at 150 mg/kg ([1]; ATCC11651, 504 h, day 21) is reported as 0%. For the same compound, the pest or weed control at 100 ppm [2] was 100%, the pest or weed control at 100 ppm [3] was 100% and the pest or weed control at 100 ppm [4] was 87%. It also gave a pest or weed control at 100 ppm [5] of 85%, a pest or weed control at 100 ppm [6] of 17% and a pest or weed control at 100 ppm [7] of 36%. The pest or weed control at 100 ppm [8] was 100%, the pest or weed control at 100 ppm [9] was 0% and the pest or weed control at 100 ppm [10] was 16%. For the same compound, the pest or weed control at 5000 g/ha [11] was 0%, the pest or weed control at 5000 g/ha [12] was 0% and the pest or weed control at 5000 g/ha [13] was 0%. The pest or weed control at 5000 g/ha [14] was 0%, the MIC [15] was ≤ 0.4 µg/mL and the MIC [16] was > 100 µg/mL.
